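Test compounds were applied to cells in 96-well plates for 48 hours at 5 doses. GI50 marks 50% less growth.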 Active and inactive are the calls of the source. Rule as the data show it: active = GI50 up to about 1.1 µM and inactive = higher.
Key:
Test in all cases: NCI-60 cell line screen, 48 h
786-0 = system: 786-0
A549 = system: A549
ACHN = system: ACHN
BT-549 = system: BT-549
CAKI-1 = system: CAKI-1
CCRF-CEM = system: CCRF-CEM
COLO 205 = system: COLO 205
DU-145 = system: DU-145
HCC 2998 = system: HCC 2998
HCT-116 = system: HCT-116
HCT-15 = system: HCT-15
HL-60 = system: HL-60
HOP-62 = system: HOP-62
HOP-92 = system: HOP-92
HT-29 = system: HT-29
Hs-578T = system: Hs-578T
IGROV-1 = system: IGROV-1
KM12 = system: KM12
LOX IMVI = system: LOX IMVI
M14 = system: M14
MDA-MB-231 = system: MDA-MB-231
MDA-MB-435 = system: MDA-MB-435
MDA-N = system: MDA-N
MOLT-4 = system: MOLT-4
Malme-3M = system: Malme-3M
NCI-H226 = system: NCI-H226
NCI-H23 = system: NCI-H23
NCI-H460 = system: NCI-H460
NCI-H522 = system: NCI-H522
NCI/ADR-RES = system: NCI/ADR-RES
OVCAR-3 = system: OVCAR-3
OVCAR-4 = system: OVCAR-4
OVCAR-5 = system: OVCAR-5
OVCAR-8 = system: OVCAR-8
PC-3 = system: PC-3
RPMI-8226 = system: RPMI-8226
SF-268 = system: SF-268
SF-295 = system: SF-295
SF-539 = system: SF-539
SK-MEL-28 = system: SK-MEL-28
SK-MEL-2 = system: SK-MEL-2
SK-MEL-5 = system: SK-MEL-5
SK-OV-3 = system: SK-OV-3
SN12C = system: SN12C
SNB-19 = system: SNB-19
SNB-75 = system: SNB-75
SR = system: SR
SW-620 = system: SW-620
T47D = system: T47D
TK-10 = system: TK-10
U-251 = system: U-251
UACC-257 = system: UACC-257
UACC-62 = system: UACC-62
UO-31 = system: UO-31
A498 = system: A498
EKVX = system: EKVX
K562 = system: K562
RXF 393 = system: RXF 393

## CC1OC2OC3C(OCC(O)C3O)OC(=O)[C@]34CCC(C)(C)CC3C3=CCC5[C@@]6(C)C[C@H](O)[C@H](OC7OC(CO)C(O)C(O)C7OC7OC(COC(=O)CC(C)(O)CC(=O)OC1C(OC1OC(CO)C(O)C(O)C1O)C2O)C(O)C(O)C7O)[C@@](C)(CO)C6CC[C@@]5(C)[C@]3(C)CC4 (some centres not stated)
786-0
  GI50: 2.84 µM (inactive)
A549
  GI50: 0.14 µM (active)
ACHN
  GI50: 2.72 µM (inactive)
BT-549
  GI50: 6.03 µM (inactive)
CAKI-1
  GI50: 7.53 µM (inactive)
CCRF-CEM
  GI50: 4.18 µM (inactive)
COLO 205
  GI50: 2.23 µM (inactive)
DU-145
  GI50: 2.61 µM (inactive)
HCC 2998
  GI50: 1.42 µM (inactive)
HCT-116
  GI50: 2.59 µM (inactive)
HCT-15
  GI50: 6.25 µM
HL-60
  GI50: 1.44 µM (inactive)
HOP-62
  GI50: 1.46 µM (inactive)
HOP-92
  GI50: 2.24 µM (inactive)
HT-29
  GI50: 1.52 µM (inactive)
Hs-578T
  GI50: 8 µM (inactive)
IGROV-1
  GI50: 3.9 µM (inactive)
KM12
  GI50: 2.37 µM (inactive)
LOX IMVI
  GI50: 3.27 µM (inactive)
M14
  GI50: 2.51 µM (inactive)
MDA-MB-231
  GI50: 7.52 µM (inactive)
MDA-MB-435
  GI50: 1.91 µM (inactive)
MDA-N
  GI50: 1.44 µM (inactive)
MOLT-4
  GI50: 2.98 µM (inactive)
Malme-3M
  GI50: 2.41 µM (inactive)
NCI-H226
  GI50: 7.91 µM (inactive)
NCI-H23
  GI50: 1.51 µM (inactive)
NCI-H460
  GI50: 9.55 µM (inactive)
NCI-H522
  GI50: 2 µM (inactive)
NCI/ADR-RES
  GI50: 3.15 µM (inactive)
OVCAR-3
  GI50: 4.35 µM (inactive)
OVCAR-4
  GI50: 5.16 µM (inactive)
OVCAR-5
  GI50: 2.01 µM (inactive)
OVCAR-8
  GI50: 3.92 µM (inactive)
PC-3
  GI50: 1.95 µM (inactive)
RPMI-8226
  GI50: 2.51 µM (inactive)
SF-268
  GI50: 2.94 µM (inactive)
SF-295
  GI50: 1.52 µM (inactive)
SF-539
  GI50: 5.46 µM (inactive)
SK-MEL-28
  GI50: 1.3 µM (inactive)
SK-MEL-2
  GI50: 1.58 µM (inactive)
SK-MEL-5
  GI50: 0.137 µM (active)
SK-OV-3
  GI50: 12.2 µM (inactive)
SN12C
  GI50: 4.98 µM (inactive)
SNB-19
  GI50: 5.81 µM (inactive)
SNB-75
  GI50: 2.82 µM (inactive)
SR
  GI50: 3.66 µM (inactive)
SW-620
  GI50: 0.359 µM (active)
T47D
  GI50: 3.34 µM (inactive)
TK-10
  GI50: 1.85 µM (inactive)
U-251
  GI50: 2.9 µM (inactive)
UACC-257
  GI50: 1.64 µM (inactive)
UACC-62
  GI50: 1.64 µM (inactive)
UO-31
  GI50: 1.64 µM (inactive)

## NC(=O)c1cc2ccccc2c(/N=N/c2ccccc2)c1O
786-0
  GI50: 9.31 µM (inactive)
A498
  GI50: > 100 µM (inactive)
A549
  GI50: > 100 µM (inactive)
BT-549
  GI50: > 100 µM (inactive)
CAKI-1
  GI50: 23.5 µM (inactive)
CCRF-CEM
  GI50: > 100 µM (inactive)
COLO 205
  GI50: > 100 µM (inactive)
DU-145
  GI50: > 100 µM (inactive)
EKVX
  GI50: 39.4 µM (inactive)
HCT-116
  GI50: 14.1 µM (inactive)
HCT-15
  GI50: > 100 µM
HOP-62
  GI50: 22.6 µM (inactive)
HOP-92
  GI50: 12.5 µM (inactive)
HT-29
  GI50: 7.87 µM (inactive)
Hs-578T
  GI50: 93.3 µM (inactive)
IGROV-1
  GI50: > 100 µM (inactive)
K562
  GI50: 71.9 µM (inactive)
KM12
  GI50: 28.6 µM (inactive)
LOX IMVI
  GI50: > 100 µM (inactive)
M14
  GI50: > 100 µM (inactive)
MDA-MB-231
  GI50: 35.6 µM (inactive)
MDA-MB-435
  GI50: > 100 µM (inactive)
MDA-N
  GI50: > 100 µM (inactive)
MOLT-4
  GI50: 76.7 µM (inactive)
Malme-3M
  GI50: > 100 µM (inactive)
NCI-H226
  GI50: > 100 µM (inactive)
NCI-H23
  GI50: > 100 µM (inactive)
NCI-H522
  GI50: 38.7 µM (inactive)
NCI/ADR-RES
  GI50: 76.2 µM (inactive)
OVCAR-3
  GI50: 88.1 µM (inactive)
OVCAR-4
  GI50: 19.4 µM (inactive)
OVCAR-5
  GI50: > 100 µM (inactive)
OVCAR-8
  GI50: 29.9 µM (inactive)
PC-3
  GI50: > 100 µM (inactive)
RPMI-8226
  GI50: 59.6 µM (inactive)
RXF 393
  GI50: > 100 µM (inactive)
SF-268
  GI50: 52.7 µM (inactive)
SF-295
  GI50: > 100 µM (inactive)
SK-MEL-28
  GI50: > 100 µM (inactive)
SK-MEL-2
  GI50: > 100 µM (inactive)
SK-MEL-5
  GI50: > 100 µM (inactive)
SK-OV-3
  GI50: 76.6 µM (inactive)
SN12C
  GI50: > 100 µM (inactive)
SNB-19
  GI50: > 100 µM (inactive)
SNB-75
  GI50: > 100 µM (inactive)
SR
  GI50: > 100 µM (inactive)
SW-620
  GI50: > 100 µM (inactive)
T47D
  GI50: > 100 µM (inactive)
TK-10
  GI50: > 100 µM (inactive)
U-251
  GI50: 9.59 µM (inactive)
UACC-257
  GI50: > 100 µM (inactive)
UACC-62
  GI50: > 100 µM (inactive)
UO-31
  GI50: > 100 µM (inactive)

From ChEMBL document CHEMBL1201862, “PubChem BioAssay data set” (2004)
